Results: US20260284011A1, “COMPOUNDS FOR RESTORING SUSCEPTIBILITY TO BETA-LACTAM ANTIBIOTICS” (UNIVERSITY OF NOTRE DAME DU LAC, priority 2023, published 2026)

Assays:
BlaR = BlaR (Staphylococcus aureus, UniProt P18357); assay: Live-cell fluorescent assay for BlaR inhibition (Venus reporter); type: cell-based, S. aureus NRS144pCN52RI-Venus; conditions: compound at 100 mg/L^−1; CBAP 10 mg·L^−1; fluorescence after 2 h
Excerpt: Live-Cell Fluorescent Assay in Discovery and Mechanism of Action. We conceived of fluorescent constructs in the bla operon, for the purpose of screening (FIG. 2a). We removed the gene for the β-lactamase (blaZ) and put in its place individually the genes for the Green Fluorescent Protein (GFP), Venus (a yellow-fluorescent protein) or mCherry (a red-fluorescent protein) in the template plasmid pCN52. The three plasmids were named pCN52RI, pCN52RI-Venus and pCN52RI-mCherry, respectively. The genes for the fluorescent proteins were transcribed under the promoter of the blaZ gene and were regulated by the proteins BlaR and BlaI, as is the case for the wild-type bla operon.
We transformed separately S. aureus NRS144—a laboratory strain that accepts a foreign gene and harbors neither the bla nor the mec operons—with each of these plasmids. […] When induced, the fluorescent protein is produced and is detected (akin to expression of the resistance genes blaZ or mecA in typical MSSA and MRSA). […] The transformed strains were grown in tryptic soy broth medium for overnight culture and strain maintenance and incubated in cation-adjusted Mueller-Hinton broth medium for inhibitor screening in a 96-well microplate format. The culture without CBAP addition was the negative control. In order to select a desirable reporter construct, we compared the intensity of the fluorescence produced from each construct at the wavelengths given in FIG. 2a using the Cytation-5 multi-mode microplate reader. Among the three constructs, pCN52RI-Venus produced the best fluorescence intensity and pCN52RI-mCherry was the second best (FIG. 4).
(§1) The collection of the 100 compounds from the in-silico search was screened against S. aureus NRS144pCN52RI-Venus. The screening strategy was as follows. Bacteria grown to OD600 of 0.25 were exposed concurrently to CBAP (10 mg·L^−1) and the test compound (100 mg·L^−1). Fluorescence was recorded after two hours of incubation. OD600 values were also recorded to identify compounds with inherent antibacterial activity. Compound 1 (Chart 1) emerged—82% diminished fluorescence as an indication of the extent of BlaR inhibition—as a suitable template for structure elaboration. This effort led to the synthesis of several dozen benzimidazole and imidazole compounds. The progression of the iterative design is depicted in Chart 1 for four compounds, culminating in 4. […] The X-ray structures for the complexes of compounds 2 (non-covalent) and 4 (covalent) with the BlaR sensor domain are shown respectively in FIG. 2b (2.0 Å resolution) and FIG. 2c (1.97 Å resolution). Compound 4 makes a covalent bond with the catalytic Ser389 and creates a network of hydrogen bonds with the BlaR active site (FIG. 2c).
(§2) Fluorescent assay for screening of BlaR potential inhibitors. A 3-mL portion of lysogeny broth (LB) medium was inoculated with NRS144pCN52RI Venus from frozen stocks and grown overnight at 37° C. The overnight culture was then diluted 1:150 fold with fresh LB containing […] of erythromycin and incubated at 37° C. to an OD600 of 0.3, at which point fluorescence was induced by the addition of CBAP to a final concentration of 10 μg·mL^−1. The culture was aliquoted (99 L) into 96-well plate and 1 L of inhibitor solution (1 mg·mL^−1 in DMSO) was added to each well. Negative control (DMSO without CBAP) and positive control (CBAP without inhibitor) were included. The plate was incubated at 30° C. for 2 h with intermittent shaking. Fluorescence and OD600 measurements were taken by a Cytation-5 multimode microplate reader. Percent inhibition of BlaR and bacterial growth were calculated using absorbance unit (AU) and OD600 values of each sample entered into this formula: […]

[1] = system: S. aureus NRS144pCN52RI-Venus; assay: Bacterial growth inhibition (OD600) in the fluorescent screening assay; type: cell-based, Staphylococcus aureus; conditions: compound at 100 mg/L^−1; OD600 after 2 h
Protocol: as §1, §2

BlaR, sequence (P18357 whole entry): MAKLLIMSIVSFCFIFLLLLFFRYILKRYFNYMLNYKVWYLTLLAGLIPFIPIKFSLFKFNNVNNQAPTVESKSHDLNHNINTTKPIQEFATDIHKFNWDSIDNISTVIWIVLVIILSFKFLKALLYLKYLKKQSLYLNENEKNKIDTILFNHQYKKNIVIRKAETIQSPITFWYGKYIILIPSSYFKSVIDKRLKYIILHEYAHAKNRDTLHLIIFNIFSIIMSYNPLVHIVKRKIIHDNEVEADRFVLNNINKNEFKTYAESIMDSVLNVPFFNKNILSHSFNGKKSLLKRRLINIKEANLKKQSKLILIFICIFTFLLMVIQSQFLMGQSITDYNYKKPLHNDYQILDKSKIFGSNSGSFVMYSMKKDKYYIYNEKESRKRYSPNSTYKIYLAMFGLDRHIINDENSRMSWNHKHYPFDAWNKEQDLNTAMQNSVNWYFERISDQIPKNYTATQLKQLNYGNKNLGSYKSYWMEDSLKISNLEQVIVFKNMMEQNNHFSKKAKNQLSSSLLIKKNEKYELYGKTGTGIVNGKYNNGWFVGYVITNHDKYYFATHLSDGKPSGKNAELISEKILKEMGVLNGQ

Row | SMILES | % Inhibition of BlaR (BlaR) | % Inhibition of bacterial growth [1]
1 | CC(=O)NCc1ccc2nc(S)n(Cc3ccc(C(F)(F)F)cc3C(F)(F)F)c2c1 | 70% | 0%
2 | OC[C@@H](O)[C@H](O)[C@H](O)c1cn(Cc2ccccc2)c(=S)[nH]1 | 13% | 0%
3 | OC[C@@H](O)[C@@H](O)c1cn(Cc2ccccc2)c(=S)[nH]1 | 11% | 0%
4 | O=S(=O)(O)c1nc2ccccc2n1Cc1ccc(C(F)(F)F)cc1C(F)(F)F [Compound 1, 1-[[2,4-Bis(trifluoromethyl)phenyl]methyl]benzimidazole-2-sulfonic acid] | 82% | 0%
5 | OCc1cn(Cc2ccc(C(F)(F)F)cc2C(F)(F)F)c(=S)[nH]1 [Compound 2, 4-(Hydroxymethyl)-1-[[2,4-bis(trifluoromethyl)phenyl]methyl]-2H-imidazole-2-thione] | 92% | 0%
6 | OB(O)CSc1nc2ccccc2n1Cc1ccc(C(F)(F)F)cc1C(F)(F)F [Compound 3] | 98% | 20%
7 | FC(F)(F)c1ccc(Cn2c(=S)[nH]c3ccccc32)c(C(F)(F)F)c1 [Compound 8, 1-[[2,4-Bis(trifluoromethyl)phenyl]methyl]benzimidazole-2-thione] | 65% | 10%
8 | N#Cc1ccc2c(c1)[nH]c(=S)n2Cc1ccc(C(F)(F)F)cc1C(F)(F)F [Compound 9, 1-[2,4-bis(trifluoromethyl)benzyl]-5-nitrile-benzimidazole-2-thione] | – | 97%
9 | O=S(=O)(O)c1nc2ccccc2n1Cc1ccc(F)cc1C(F)(F)F [Compound 11] | 78% | 0%
10 | O=S(=O)(O)c1nc2ccccc2n1Cc1ccc(Cl)cc1 [Compound 12] | 72% | 0%
11 | O=S(=O)(O)c1nc2ccccc2n1Cc1ccccc1C(F)(F)F [Compound 13] | 69% | 0%
12 | NCc1ccc2nc(S)n(Cc3ccc(C(F)(F)F)cc3C(F)(F)F)c2c1 [Compound 14] | 60% | 0%
13 | COC(=O)c1ccc2nc(S)n(Cc3ccc(C(F)(F)F)cc3C(F)(F)F)c2c1 [Compound 15] | 10% | 0%
14 | COC(=O)c1ccc2nc(S(=O)(=O)O)n(Cc3ccc(C(F)(F)F)cc3C(F)(F)F)c2c1 [Compound 16] | 20% | 0%
15 | OCc1ccc2nc(S)n(Cc3ccc(C(F)(F)F)cc3C(F)(F)F)c2c1 [Compound 17] | 0% | 99%
16 | O=S(=O)(O)c1nc2ccc(CO)cc2n1Cc1ccc(C(F)(F)F)cc1C(F)(F)F [Compound 18] | 97% | 0%
17 | N#Cc1ccc2nc(N)n(Cc3ccc(C(F)(F)F)cc3C(F)(F)F)c2c1 [Compound 19] | 55% | 0%
18 | COC(=O)c1ccc2nc(N)n(Cc3ccc(C(F)(F)F)cc3C(F)(F)F)c2c1 [Compound 20] | – | 0%

Row | SMILES | % Inhibition of BlaR (BlaR) | % Inhibition of bacterial growth [1]
19 | Nc1nc2ccc(CO)cc2n1Cc1ccc(C(F)(F)F)cc1C(F)(F)F [Compound 21] | 89% | 0%
20 | O=C(/C=C/c1ccc(F)cc1)NCc1ccc2nc(S)n(Cc3ccc(C(F)(F)F)cc3C(F)(F)F)c2c1 [Compound 23] | 76% | 70%
21 | O=C(/C=C/c1ccc(F)cc1)NCc1ccc2nc(S(=O)(=O)O)n(Cc3ccc(C(F)(F)F)cc3C(F)(F)F)c2c1 [Compound 24] | – | 24, R^4 = F, R^5 = H, X = SO3H, 100; 100%
22 | O=C(/C=C/c1ccc(Cl)cc1Cl)NCc1ccc2nc(S)n(Cc3ccc(C(F)(F)F)cc3C(F)(F)F)c2c1 [Compound 25] | 75% | 50%
23 | O=C(/C=C/c1ccc(F)cc1)NCc1ccc2nc(S(=O)(=O)O)n(Cc3ccc(C(F)(F)F)cc3C(F)(F)F)c2c1 [Compound 26] | 99% | 100%
24 | O=C(/C=C/c1ccc(C(F)(F)F)cc1F)NCc1ccc2nc(S)n(Cc3ccc(C(F)(F)F)cc3C(F)(F)F)c2c1 [Compound 27] | 79% | 55%
25 | O=C(/C=C/c1ccc(C(F)(F)F)cc1F)NCc1ccc2nc(S(=O)(=O)O)n(Cc3ccc(C(F)(F)F)cc3C(F)(F)F)c2c1 [Compound 28] | 92% | 100%
26 | O=C(CCc1ccc(F)cc1)NCc1ccc2nc(S)n(Cc3ccc(C(F)(F)F)cc3C(F)(F)F)c2c1 [Compound 29] | 59% | 0%
27 | O=C(CCc1ccc(F)cc1)NCc1ccc2nc(S(=O)(=O)O)n(Cc3ccc(C(F)(F)F)cc3C(F)(F)F)c2c1 [Compound 30] | 86% | 0%
28 | C[N+]12CC(=O)O[B-]1(CSc1nc3ccccc3n1Cc1ccc(C(F)(F)F)cc1C(F)(F)F)OC(=O)C2 (stereo not shown) [Compound 31, (T-4)-[N-[(Carboxy-κO)methyl]-N-methylglycinato(2-)-κN,κO][[N^1-[[2,4-bis(trifluoromethyl)phenyl]methyl]-1H-benzimidazole-1-yl]thiomethyl]boron] | – | 13%
29 | C[N+]12CC(=O)O[B-]1(CSc1nc3ccc(C#N)cc3n1Cc1ccc(C(F)(F)F)cc1C(F)(F)F)OC(=O)C2 (stereo not shown) [Compound 32] | 93% | 20%
30 | COC(=O)c1ccc2nc(SCB(O)O)n(Cc3ccc(C(F)(F)F)cc3C(F)(F)F)c2c1 [Compound 33] | 95% | 13%
31 | O=C(O)c1ccc2nc(SCB(O)O)n(Cc3ccc(C(F)(F)F)cc3C(F)(F)F)c2c1 [Compound 34] | 92% | 18%
32 | COC(=O)c1ccc2nc(SC[B-]34OC(=O)C[N+]3(C)CC(=O)O4)n(Cc3ccc(C(F)(F)F)cc3C(F)(F)F)c2c1 (stereo not shown) [Compound 35] | 98% | 33%
33 | OCCc1nc2ccccc2n1Cc1ccc(C(F)(F)F)cc1C(F)(F)F [Compound 44] | – | 40%
34 | CC(C)(C)OC(=O)NCc1cn(Cc2ccc(C(F)(F)F)cc2C(F)(F)F)c(=S)[nH]1 [Compound 47] | – | 0%
35 | NS(=O)(=O)c1nc([C@H](O)[C@H](O)CO)cn1Cc1ccccc1 [Compound 53] | – | 49%
36 | O=S(=O)(F)c1nc(CO)cn1Cc1ccc(C(F)(F)F)cc1C(F)(F)F [Compound 59] | – | 83%
